Our source for the IC50 values is ChEMBL document CHEMBL5726965, “Heterocyclic compounds as LSD1 inhibitors” (2018).

pIC50: −log10 of the molar value.

The target of the experiment is Lysine-specific histone demethylase 1A (Homo sapiens, UniProt O60341). Nature of the experiment: Biochemical Assay: LANCE LSD1/KDM1A demethylase assay-10 μL of 1 nM LSD-1 enzyme (ENZO BML-SE544-0050) in the assay buffer (50 mM Tris, pH 7.5, 0.01% Tween-20, 25 mM NaCl, 5 mM DTT) were preincubated for 1 hour at 25° C. with 0.8 μL compound/DMSO dotted in black 384 well polystyrene plates. Reactions were started by addition of 10 μL of assay buffer containing 0.4 μM Biotin-labeled Histone H3 peptide substrate: ART-K(Mel)-QTARKSTGGKAPRKQLA-GGK(Biotin) SEQ ID NO: 1 (AnaSpec 64355) and incubated for 1 hour at 25° C. Reactions were stopped by addition of 10 μL 1×LANCE Detection Buffer (PerkinElmer CR97-100) supplemented with 1.5 nM Eu-anti-unmodified H3K4 Antibody (PerkinElmer TRF0404), and 225 nM LANCE Ultra Streptavidin (PerkinElmer TRF102) along with 0.9 mM Tranylcypromine-HCl (Millipore 616431). After stopping the reactions plates were incubated for 30 minutes and read on a PHERAstar FS plate reader (BMG Labtech).
`COC(=O)N(C)c1ccc(-c2c(-c3ccc(C#N)cc3)nc(N3CCC(N(C)C)CC3)n3ccnc23)cc1F` showed a pIC50 greater than 7.30.

The compound `COC(=O)N(C)c1cc(-c2c(-c3ccc(C#N)cc3)nc(OC[C@@H]3CCCN(C)C3)n3ccnc23)ccc1C` had a pIC50 greater than 7.30.

Regarding `COC(=O)N(C)c1ccc(-c2c(-c3ccc(C#N)cc3)nc(N3CCC(N(C)C)CC3)n3ccnc23)cc1`, the pIC50 was greater than 7.30.
